Toxic doses and inconclusive results are not listed.
System: BDF1 mice, B16 melanoma ip, median survival T/C
Experiment: NCI In Vivo Anticancer Drug Screen. Data for tumor model B16 Melanoma (intraperitoneal) in B6D2F1 (BDF1) mice
Details: endpoint: median survival time, higher = longer survival
Method in brief: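 In this screen, activity was judged from survival or tumor size in treated versus vehicle-treated tumor-bearing mice, reported as T/C.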

[1] = dose: 25.0 mg/kg/injection, schedule: Q01DX009 (ip), vehicle: saline
[2] = dose: 50.0 mg/kg/injection, schedule: Q01DX009 (ip), vehicle: saline
[3] = dose: 100.0 mg/kg/injection, schedule: Q01DX009 (ip), vehicle: saline
[4] = dose: 6.25 mg/kg/injection, schedule: Q01DX009 (ip), vehicle: saline with Tween-80
[5] = dose: 25.0 mg/kg/injection, schedule: Q01DX009 (ip), vehicle: saline with Tween-80
[6] = dose: 50.0 mg/kg/injection, schedule: Q01DX009 (ip), vehicle: saline with Tween-80
[7] = dose: 100.0 mg/kg/injection, schedule: Q01DX009 (ip), vehicle: saline with Tween-80
[8] = dose: 12.5 mg/kg/injection, schedule: Q01DX009 (ip), vehicle: Klucel (hydroxypropylcellulose) (HPC)
[9] = dose: 25.0 mg/kg/injection, schedule: Q01DX009 (ip), vehicle: Klucel (hydroxypropylcellulose) (HPC)
[10] = dose: 50.0 mg/kg/injection, schedule: Q01DX009 (ip), vehicle: Klucel (hydroxypropylcellulose) (HPC)
[11] = dose: 6.25 mg/kg/injection, schedule: Q01DX009 (ip), vehicle: Klucel (hydroxypropylcellulose) (HPC)
[12] = dose: 200.0 mg/kg/injection, schedule: Q01DX009 (ip), vehicle: saline with Tween-80
[13] = dose: 12.5 mg/kg/injection, schedule: Q01DX009 (ip), vehicle: saline with Tween-80

## CN(C)CCCC#N
[1]
  T/C: 100 % of control
[2]
  T/C: 100 % of control
[3]
  T/C: 100 % of control

## CC(=O)OC1COC(NC(=O)N(CCCl)N=O)C(OC(C)=O)C1OC(C)=O (configuration not stated)
dose: 0.18 mg/kg/injection, schedule: Q01DX009 (ip), vehicle: saline with Tween-80
  T/C: 106 % of control
dose: 0.2 mg/kg/injection, schedule: Q01DX009 (ip), vehicle: saline with Tween-80
  T/C: 155 % of control
dose: 0.37 mg/kg/injection, schedule: Q01DX009 (ip), vehicle: saline with Tween-80
  T/C: 118 % of control
dose: 0.39 mg/kg/injection, schedule: Q01DX009 (ip), vehicle: saline with Tween-80
  T/C: 114 % of control
dose: 1.5 mg/kg/injection, schedule: Q01DX009 (ip), vehicle: saline with Tween-80
  T/C: 168 % of control
dose: 1.56 mg/kg/injection, schedule: Q01DX009 (ip), vehicle: saline with Tween-80
  T/C: 170 % of control
dose: 3.0 mg/kg/injection, schedule: Q01DX009 (ip), vehicle: saline with Tween-80
  T/C: 173 % of control
dose: 3.12 mg/kg/injection, schedule: Q01DX009 (ip), vehicle: saline with Tween-80
  T/C: 209 % of control
dose: 6.0 mg/kg/injection, schedule: Q01DX009 (ip), vehicle: saline with Tween-80
  T/C: 162 % of control
[4]
  T/C: 190 % of control

## C=C(Cl)CC1(C(=O)OCC)CCN(S(=O)(=O)c2ccc(C)cc2)c2ccccc2C1=O (configuration not stated)
dose: 100.0 mg/kg/injection, schedule: Q04DX003 (ip), vehicle: Klucel (hydroxypropylcellulose) (HPC)
  T/C: 97 % of control
dose: 200.0 mg/kg/injection, schedule: Q04DX003 (ip), vehicle: Klucel (hydroxypropylcellulose) (HPC)
  T/C: 107 % of control
dose: 400.0 mg/kg/injection, schedule: Q04DX003 (ip), vehicle: Klucel (hydroxypropylcellulose) (HPC)
  T/C: 93 % of control

## NCOC(=O)Cc1ccc(Br)cc1
dose: 100.0 mg/kg/injection, schedule: Q01DX009 (ip), vehicle: Klucel (hydroxypropylcellulose) (HPC)
  T/C: 97 % of control
dose: 200.0 mg/kg/injection, schedule: Q01DX009 (ip), vehicle: Klucel (hydroxypropylcellulose) (HPC)
  T/C: 97 % of control
dose: 400.0 mg/kg/injection, schedule: Q01DX009 (ip), vehicle: Klucel (hydroxypropylcellulose) (HPC)
  T/C: 89 % of control

## CCOC(=O)C1=C(O)c2c(sc(C)c2C)N(S(=O)(=O)c2ccc(C)cc2)CC1
dose: 12.5 mg/kg/injection, schedule: Q04DX003 (ip), vehicle: saline with Tween-80
  T/C: 116 % of control
dose: 25.0 mg/kg/injection, schedule: Q04DX003 (ip), vehicle: saline with Tween-80
  T/C: 113 % of control
dose: 50.0 mg/kg/injection, schedule: Q04DX003 (ip), vehicle: saline with Tween-80
  T/C: 111 % of control
dose: 100.0 mg/kg/injection, schedule: Q04DX003 (ip), vehicle: saline with Tween-80
  T/C: 111 % of control
dose: 200.0 mg/kg/injection, schedule: Q04DX003 (ip), vehicle: saline with Tween-80
  T/C: 108 % of control

## c1ccc(N/N=C2/CCN3CCCc4cccc2c43)cc1
dose: 25.0 micrograms/kg/injection, schedule: Q01DX009 (ip), vehicle: DMSO
  T/C: 86 % of control

## Cc1cccnc1C
dose: 25.0 mg/kg/injection, schedule: Q04DX003 (ip), vehicle: saline
  T/C: 103 % of control
dose: 50.0 mg/kg/injection, schedule: Q04DX003 (ip), vehicle: saline
  T/C: 104 % of control
dose: 100.0 mg/kg/injection, schedule: Q04DX003 (ip), vehicle: saline
  T/C: 112 % of control

## c1ccc([As+](c2ccccc2)(c2ccccc2)c2ccccc2)cc1
dose: 1.87 mg/kg/injection, schedule: Q01DX009 (ip), vehicle: Klucel (hydroxypropylcellulose) (HPC)
  T/C: 122 % of control
dose: 3.75 mg/kg/injection, schedule: Q01DX009 (ip), vehicle: Klucel (hydroxypropylcellulose) (HPC)
  T/C: 110 % of control

## CNCCOc1ccc(Cl)cc1
[5]
  T/C: 103 % of control
[6]
  T/C: 98 % of control
[7]
  T/C: 101 % of control

## CCCCCCCCCCCC(=O)Nc1ccccc1
[8]
  T/C: 105 % of control
[9]
  T/C: 90 % of control
[10]
  T/C: 92 % of control

## O=C(O)C1CC[N-]CC1.O=C(O)C1CC[N-]CC1.O=C(O)C1CC[N-]CC1.O=C(O)C1CC[N-]CC1.[Cl][Rh][Cl]
[1]
  T/C: 104 % of control
[2]
  T/C: 94 % of control
[3]
  T/C: 102 % of control

## N=C(N)SCc1cccc2c(=O)cc(-c3ccccc3)oc12
[2]
  T/C: 101 % of control
[3]
  T/C: 111 % of control
dose: 200.0 mg/kg/injection, schedule: Q01DX009 (ip), vehicle: saline
  T/C: 86 % of control

## O=Nc1ccc2cc(O)ccc2c1O
dose: 3.12 mg/kg/injection, schedule: Q04DX003 (ip), vehicle: Klucel (hydroxypropylcellulose) (HPC)
  T/C: 97 % of control
[11]
  T/C: 95 % of control
dose: 6.25 mg/kg/injection, schedule: Q04DX003 (ip), vehicle: Klucel (hydroxypropylcellulose) (HPC)
  T/C: 102 % of control
[8]
  T/C: 109 % of control
dose: 12.5 mg/kg/injection, schedule: Q04DX003 (ip), vehicle: Klucel (hydroxypropylcellulose) (HPC)
  T/C: 100 % of control

## C=CCOCC(O)CN(C)CC1CCCO1 (configuration not stated)
[1]
  T/C: 103 % of control
[2]
  T/C: 102 % of control
[3]
  T/C: 91 % of control

## COC1=C(OC)C(=O)C(C/C=C(\C)CC/C=C(\C)CC/C=C(\C)CC/C=C(\C)CC/C=C(\C)CC/C=C(\C)CC/C=C(\C)CC/C=C(\C)CCC=C(C)C)=C(C)C1=O
dose: 10.0 mg/kg/injection, schedule: Q01DX025 (ip), vehicle: saline with Tween-80
  T/C: 81 % of control
dose: 20.0 mg/kg/injection, schedule: Q01DX025 (ip), vehicle: saline with Tween-80
  T/C: 102 % of control
dose: 40.0 mg/kg/injection, schedule: Q01DX025 (ip), vehicle: saline with Tween-80
  T/C: 100 % of control

## OC1CC2CC1C1C=CCC21 (configuration not stated)
[6]
  T/C: 95 % of control
[7]
  T/C: 95 % of control
[12]
  T/C: 90 % of control

## O=C(CCl)c1ccc(O)c(O)c1
[8]
  T/C: 94 % of control
[9]
  T/C: 87 % of control

## CN(C(=S)S(=O)(=O)C12CC3CC(CC(C3)C1)C2)c1ccccc1
dose: 3.12 mg/kg/injection, schedule: Q01DX009 (ip), vehicle: Klucel (hydroxypropylcellulose) (HPC)
  T/C: 98 % of control
[11]
  T/C: 98 % of control
[8]
  T/C: 95 % of control
[9]
  T/C: 95 % of control
[10]
  T/C: 88 % of control

## c1ccc2sc(SSN3CCOCC3)nc2c1
[8]
  T/C: 97 % of control
[10]
  T/C: 94 % of control

## O=[N+]([O-])c1cccc(C(O)C=C(C(F)(F)F)C(F)(F)F)c1 (configuration not stated)
[5]
  T/C: 93 % of control
[7]
  T/C: 86 % of control

## NC(=S)N/N=C/c1ccc(OC(=O)COc2ccc(Cl)cc2)cn1
[5]
  T/C: 111 % of control
[6]
  T/C: 116 % of control
[7]
  T/C: 117 % of control

## CC1=CC2=C(C=O)C(=O)[C@](C)(O)[C@@H](O)C2=CO1
[4]
  T/C: 119 % of control
[13]
  T/C: 108 % of control
[5]
  T/C: 122 % of control

## Cl/C=C(\Cl)CCl
[4]
  T/C: 108 % of control
[13]
  T/C: 90 % of control

## CCC(C)c1ccc(O)c(C(C)CC)c1 (configuration not stated)
dose: 88.0 mg/kg/injection, schedule: Q01DX009 (ip), vehicle: saline with Tween-80
  T/C: 123 % of control
dose: 133.0 mg/kg/injection, schedule: Q01DX009 (ip), vehicle: saline with Tween-80
  T/C: 108 % of control
[12]
  T/C: 105 % of control
dose: 300.0 mg/kg/injection, schedule: Q01DX009 (ip), vehicle: saline with Tween-80
  T/C: 108 % of control

## NN1CCCC1
[1]
  T/C: 110 % of control
[2]
  T/C: 102 % of control
[3]
  T/C: 94 % of control

Source: PubChem BioAssay AID192 (DTP/NCI, 2004)
